In patent US5093359A, “Primycin components and process for the separation of the antibiotic complex” (priority 1984, dated 1992):
≈ marks a conversion by molar mass, not a printed value. Read-outs that look alike come from different tables or passages of the source.

Legend:
[1] = system: Pseudomonas acidoverans CCM.283; experiment: MIC, strain 24; conditions: CCM.283, 24 h
Experimental: (§1) The antimicrobial activity of the primycin complex and the components thereof is tested on different microorganism strains.
(§2) (Inoculation: 5 × 10^5 /ml, incubation at 37 C.° for

[2] = system: Staphylococcus aureus CCM.2515.; experiment: MIC, strain 6; type: cell-based; conditions: read-out: MIC
[3] = system: Staphylococcus aureus CCM.2514; experiment: MIC, strain 5; type: cell-based; conditions: read-out: MIC
[4] = system: Proteus vulgaris CCM.1799.; experiment: MIC, strain 25; conditions: 24 h
Experimental: as §1, §2

[5] = system: Staphylococcus aureus CCM.2317.; experiment: MIC, strain 3; type: cell-based; conditions: read-out: MIC
[6] = system: Listeria monocytogenes CCM.5576.; experiment: MIC, strain 18; type: cell-based; conditions: read-out: MIC
[7] = system: Staphylococcus aureus CCM.2326.; experiment: MIC, strain 4; type: cell-based; conditions: read-out: MIC
[8] = system: Bacillus licheniformis CCM.2205.; experiment: MIC, strain 16; type: cell-based; conditions: read-out: MIC
[9] = system: Salmonella typhimurium CCM.5445.; experiment: MIC, strain 27; conditions: Salmonella enterica, 24 h
Experimental: (§3) The table contains the MIC values (/μg/ml) measured on human pathogenic polyresistant strains.
as §1, §2

[10] = system: Bacillus licheniformis CCM.2182.; experiment: MIC, strain 15; type: cell-based; conditions: read-out: MIC
[11] = system: Bacillus subtilis CCM.1718.; experiment: MIC, strain 17; type: cell-based; conditions: 24 h, strain 17, Table O, 24 hours, read-out: MIC
[12] = system: Staphylococcus aureus CCM.885.; experiment: MIC, strain 1; type: cell-based; conditions: read-out: MIC
[13] = system: Streptococcus agalactiae CCM.5534.; experiment: MIC, strain 11; type: cell-based
[14] = system: Escherichia coli DSM.30038.; experiment: MIC, strain 28; conditions: 24 h
Experimental: as §3, §1, §2

[15] = system: Staphylococcus aureus DSM.20231; experiment: MIC, strain 2; type: cell-based
[16] = system: Streptococcus faecalis CCM.1875.; experiment: MIC, strain 9; type: cell-based; conditions: Enterococcus faecalis, read-out: MIC
[17] = system: Bacillus subtilis ATTC.6633.; experiment: MIC, strain 13; type: cell-based; conditions: read-out: MIC
[18] = system: Streptococcus agalactiae CCM.5153.; experiment: MIC, strain 10; type: cell-based; conditions: read-out: MIC
[19] = system: Bacillus cereus CCM.2010.; experiment: MIC, strain 14; type: cell-based; conditions: read-out: MIC
[20] = system: Micrococcus luteus DSM.20030.; experiment: MIC, strain 20; type: cell-based; conditions: read-out: MIC
[21] = system: Shigella sonnei CCM.1373.; experiment: MIC, strain 26; conditions: 24 h
Experimental: as §3, §1, §2

[22] = system: Streptococcus disgalactiae ATTC.9926; experiment: MIC, strain 12; type: cell-based
[23] = system: Micrococcus flavus ATCC.10240.; experiment: MIC, strain 19; type: cell-based; conditions: read-out: MIC
[24] = system: Pseudomonas fluorescens CCM.2115.; experiment: MIC, strain 23; conditions: 24 h
Experimental: as §1, §2

[25] = system: Sporosarcina ureae DSM.317; experiment: MIC, strain 21; conditions: DSM.317, 24 h
Experimental: as §1, §2

[26] = system: Staphylococcus aureus Smith; experiment: MIC, strain 8; type: cell-based; conditions: read-out: MIC
[27] = system: Staphylococcus epidermidis CCM.2271; experiment: MIC, strain 7; type: cell-based; conditions: read-out: MIC
[28] = system: Pseudomonas aeruginosa CCM.1960.; experiment: MIC, strain 22; conditions: 24 h
Experimental: as §1, §2

CCCCC1C(=O)OC(C(C)C(O)CCCNC(=N)N)C(C)C=C(C)CCCCC(O)CC(O)CC(O)CC(O)CC(O)C(O)C=C(C)C(O)CCCC(O)CCCC(O)CCC(C)C1O (stereo not shown) [C1, oxypricin]
MIC [1]: 25 µg/mL (≈ 26.4 µM) | MIC ([2]; strain 6, Table O, 24 hours): 0.025 µg/mL (≈ 0.0264 µM) | MIC ([2]; strain 6, Tables I-XIII, 25 hours): 0.025 µg/mL (≈ 0.0264 µM) | MIC ([3]; CCM.2514, strain 5, Table O, 24 hours): 0.05 µg/mL (≈ 0.0528 µM) | MIC ([3]; CCM.2514, strain 5, Tables I-XIII, 25 hours): 0.05 µg/mL (≈ 0.0528 µM) | MIC [4]: 50 µg/mL (≈ 52.8 µM) | MIC ([5]; strain 3, Table O, 24 hours): 0.05 µg/mL (≈ 0.0528 µM) | MIC ([5]; strain 3, Tables I-XIII, 25 hours): 0.05 µg/mL (≈ 0.0528 µM) | MIC ([6]; strain 18, Table O, 24 hours): 0.075 µg/mL (≈ 0.0793 µM) | MIC ([6]; strain 18, Tables I-XIII, 25 hours): 0.075 µg/mL (≈ 0.0793 µM) | MIC ([7]; strain 4, Table O, 24 hours): 0.05 µg/mL (≈ 0.0528 µM) | MIC ([7]; strain 4, Tables I-XIII, 25 hours): 0.05 µg/mL (≈ 0.0528 µM) | MIC ([8]; strain 16, Table O, 24 hours): 0.025 µg/mL (≈ 0.0264 µM) | MIC ([8]; strain 16, Tables I-XIII, 25 hours): 0.025 µg/mL (≈ 0.0264 µM) | MIC [9]: 50 µg/mL (≈ 52.8 µM) | MIC ([10]; strain 15, Table O, 24 hours): 0.025 µg/mL (≈ 0.0264 µM) | MIC ([10]; strain 15, Tables I-XIII, 25 hours): 0.025 µg/mL (≈ 0.0264 µM) | MIC [11]: 0.05 µg/mL (≈ 0.0528 µM) | MIC ([12]; strain 1, Table O, 24 hours): 0.075 µg/mL (≈ 0.0793 µM) | MIC ([12]; strain 1, Tables I-XIII, 25 hours): 0.075 µg/mL (≈ 0.0793 µM) | MIC ([13]; Streptococcus agalactiae, CCM.5534., 24 h, strain 11, Table O, 24 hours, read-out: MIC): 0.25 µg/mL (≈ 0.264 µM) | MIC ([13]; Streptococcus agalactiae, CCM.5534., 25 h, strain 11, Tables I-XIII, 25 hours, read-out: MIC): 0.25 µg/mL (≈ 0.264 µM) | MIC ([13]; strain 11, Tables I-XIII, 25 hours): 0.2 µg/mL (≈ 0.211 µM) | MIC [14]: 50 µg/mL (≈ 52.8 µM) | MIC ([15]; Staphylococcus aureus, DSM.20231, 24 h, strain 2, Table O, 24 hours, read-out: MIC): 0.05 µg/mL (≈ 0.0528 µM) | MIC ([15]; Staphylococcus aureus, DSM.20231, 25 h, strain 2, Tables I-XIII, 25 hours, read-out: MIC): 0.05 µg/mL (≈ 0.0528 µM) | MIC ([15]; strain 2, Tables I-XIII, 25 hours): 0.1 µg/mL (≈ 0.106 µM) | MIC ([16]; strain 9, Table O, 24 hours): 0.75 µg/mL (≈ 0.793 µM) | MIC ([16]; strain 9, Tables I-XIII, 25 hours): 0.75 µg/mL (≈ 0.793 µM) | MIC ([17]; 24 h, strain 13, Table O, 24 hours): 0.025 µg/mL (≈ 0.0264 µM) | MIC ([17]; 25 h, strain 13, Tables I-XIII, 25 hours): 0.025 µg/mL (≈ 0.0264 µM) | MIC ([18]; strain 10, Table O, 24 hours): 0.075 µg/mL (≈ 0.0793 µM) | MIC ([18]; strain 10, Tables I-XIII, 25 hours): 0.075 µg/mL (≈ 0.0793 µM) | MIC ([19]; 24 h, strain 14, Table O, 24 hours): 0.025 µg/mL (≈ 0.0264 µM) | MIC ([19]; 25 h, strain 14, Tables I-XIII, 25 hours): 0.025 µg/mL (≈ 0.0264 µM) | MIC ([20]; strain 20, Table O, 24 hours): 0.01 µg/mL (≈ 0.0106 µM) | MIC ([20]; strain 20, Tables I-XIII, 25 hours): 0.01 µg/mL (≈ 0.0106 µM) | MIC [21]: 50 µg/mL (≈ 52.8 µM) | MIC ([22]; ATTC.9926, 24 h, strain 12, Table O, 24 hours): 0.5 µg/mL (≈ 0.528 µM) | MIC ([22]; ATTC.9926, 25 h, strain 12, Tables I-XIII, 25 hours): 0.5 µg/mL (≈ 0.528 µM) | MIC ([23]; strain 19, Table O, 24 hours): 0.01 µg/mL (≈ 0.0106 µM) | MIC ([23]; strain 19, Tables I-XIII, 25 hours): 0.01 µg/mL (≈ 0.0106 µM) | MIC [24]: 25 µg/mL (≈ 26.4 µM) | MIC [25]: 0.01 µg/mL (≈ 0.0106 µM) | MIC ([26]; strain 8, Table O, 24 hours): 0.05 µg/mL (≈ 0.0528 µM) | MIC ([26]; strain 8, Tables I-XIII, 25 hours): 0.05 µg/mL (≈ 0.0528 µM) | MIC ([27]; CCM.2271, strain 7, Table O, 24 hours): 0.025 µg/mL (≈ 0.0264 µM) | MIC ([27]; CCM.2271, strain 7, Tables I-XIII, 25 hours): 0.025 µg/mL (≈ 0.0264 µM) | MIC [28]: 25 µg/mL (≈ 26.4 µM)
